These results are taken from publication PMC10734437, “Differential inhibition of intra- and inter-molecular protease cleavages by antiviral compounds” (Journal of Virology, 2023).

Where two headings read alike, the source gives them in different places. Residues, ends and D or L forms follow the SMILES beside them. *: point of attachment. Cbz = O=C(OCc1ccccc1)*; CH2F = FC*

One test concerns the target EV-D68 3C protease (Human enterovirus D68, UniProt Q68T42). The format is biochemical.
A further test concerns the target poliovirus 3C protease (Poliovirus type 1, UniProt P03300). Briefly: biochemical. The test is classed as biochemical.
In test [1] the target is T1, EV-D68 2A protease (Human enterovirus D68, UniProt A0A097BW12).
T1 sequence (A0A097BW12 862-1008): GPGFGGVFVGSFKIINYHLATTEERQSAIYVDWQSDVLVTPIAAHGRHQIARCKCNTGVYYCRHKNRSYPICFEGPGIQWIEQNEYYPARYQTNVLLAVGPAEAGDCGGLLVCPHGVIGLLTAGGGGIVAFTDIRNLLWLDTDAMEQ
Briefly: EV-D68 VP1·2A self-processing (intra-molecular cleavage) in translation extracts. The format is biochemical.

A further test deals with T2, EV-D68 2A N84T mutant (Human enterovirus D68, UniProt Q68T42, N945T).
T2 sequence (Q68T42 553-1008 N945T): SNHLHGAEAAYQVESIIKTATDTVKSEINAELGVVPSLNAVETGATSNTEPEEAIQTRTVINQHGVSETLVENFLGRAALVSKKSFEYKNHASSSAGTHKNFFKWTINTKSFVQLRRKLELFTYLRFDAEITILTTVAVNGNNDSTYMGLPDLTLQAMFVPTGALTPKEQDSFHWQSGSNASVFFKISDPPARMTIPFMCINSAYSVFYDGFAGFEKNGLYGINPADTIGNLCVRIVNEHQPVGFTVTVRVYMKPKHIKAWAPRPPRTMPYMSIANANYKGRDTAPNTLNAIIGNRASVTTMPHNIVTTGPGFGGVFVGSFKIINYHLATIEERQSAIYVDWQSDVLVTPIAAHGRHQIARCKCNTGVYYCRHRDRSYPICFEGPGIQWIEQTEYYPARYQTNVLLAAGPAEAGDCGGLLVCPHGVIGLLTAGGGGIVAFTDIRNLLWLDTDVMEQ
Kind of test: EV-D68 VP1·2A N84T (telaprevir resistant mutant) self-processing, pulse chase in translation extracts. The test is classed as biochemical.

Test [2] concerns the target T1, EV-D68 2A protease. Briefly: biochemical. The test is classed as biochemical.
Test [3] addresses T3, poliovirus 2A protease (Poliovirus type 1, UniProt P03300).
Target sequence in this assay (P03300 580-1030 limits assumed): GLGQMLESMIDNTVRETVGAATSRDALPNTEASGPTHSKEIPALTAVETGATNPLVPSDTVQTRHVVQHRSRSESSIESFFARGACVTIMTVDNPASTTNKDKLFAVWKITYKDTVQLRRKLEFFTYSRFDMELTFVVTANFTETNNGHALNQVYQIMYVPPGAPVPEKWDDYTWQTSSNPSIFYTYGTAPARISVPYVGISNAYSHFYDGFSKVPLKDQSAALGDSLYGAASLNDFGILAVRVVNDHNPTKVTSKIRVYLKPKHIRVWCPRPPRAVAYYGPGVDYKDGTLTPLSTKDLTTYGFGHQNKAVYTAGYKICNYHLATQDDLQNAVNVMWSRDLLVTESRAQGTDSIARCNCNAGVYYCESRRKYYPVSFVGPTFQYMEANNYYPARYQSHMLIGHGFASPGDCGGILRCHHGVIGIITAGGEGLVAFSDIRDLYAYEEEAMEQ
The subject of another test is rhinovirus protease. Conditions: cited from earlier work.
The target of test [4] is T3, poliovirus 2A protease. Conditions: read-out: IC50, eIF4G (inter-molecular) cleavage by poliovirus 2A.
Target sequence in this assay (P03300 882-1030 limits assumed): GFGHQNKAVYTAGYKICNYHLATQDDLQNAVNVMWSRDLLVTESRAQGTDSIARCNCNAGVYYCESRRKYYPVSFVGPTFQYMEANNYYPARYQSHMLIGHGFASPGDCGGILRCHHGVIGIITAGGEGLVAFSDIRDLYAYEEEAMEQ

Chain of poliovirus 3C protease (P03300 1457-1748 limits assumed): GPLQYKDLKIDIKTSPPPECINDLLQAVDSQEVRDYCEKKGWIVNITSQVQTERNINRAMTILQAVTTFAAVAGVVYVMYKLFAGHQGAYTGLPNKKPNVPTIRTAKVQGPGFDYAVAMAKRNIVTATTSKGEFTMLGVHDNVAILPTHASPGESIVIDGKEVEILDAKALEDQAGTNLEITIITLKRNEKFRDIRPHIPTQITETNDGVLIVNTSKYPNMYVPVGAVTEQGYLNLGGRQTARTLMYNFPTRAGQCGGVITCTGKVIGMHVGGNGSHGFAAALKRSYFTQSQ
Chain of EV-D68 3C protease (Q68T42 1438-1731 limits assumed): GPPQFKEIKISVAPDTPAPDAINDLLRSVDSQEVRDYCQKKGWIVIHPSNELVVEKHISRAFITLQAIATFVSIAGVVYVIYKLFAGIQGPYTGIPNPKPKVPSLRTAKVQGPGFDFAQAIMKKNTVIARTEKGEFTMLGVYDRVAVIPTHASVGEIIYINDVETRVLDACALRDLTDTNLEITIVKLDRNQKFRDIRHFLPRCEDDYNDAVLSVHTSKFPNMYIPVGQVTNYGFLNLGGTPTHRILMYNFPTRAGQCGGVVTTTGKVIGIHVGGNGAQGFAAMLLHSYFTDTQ

The IC50 is the concentration that inhibits the measured activity by half. Consider `CCOC(=O)/C=C/[C@H](C[C@@H]1CCNC1=O)NC(=O)[C@@H](CC(=O)[C@@H](NC(=O)c1cc(C)on1)C(C)C)Cc1ccc(F)cc1` [Rupintrivir], for which, at EV-D68 3C protease, the “inhibition of EV-D68 3ABC processing, concentration curve” value is given as “near-complete inhibition” and the “inhibition of self-processing, EV-D68 intra-molecular 3ABC processing, pulse chase” value was roughly 100%. Moreover, on poliovirus 3C protease, the “inhibition of poliovirus 3ABC processing, concentration curve” value is “near-complete inhibition” and the “inhibition of self-processing, poliovirus inter-molecular 3ABC processing, pulse chase” value is on record as roughly 100%. For the same compound, the IC50 against poliovirus 3C protease (IC50, Poliovirus 3ABC (inter-molecular) cleavage) was determined as 0.76 µM. The compound also returned an IC50 at poliovirus 3C protease (IC50, inter-molecular cleavage of poliovirus 3ABC) of roughly 0.76 µM.
For the compound `CCC[C@H](NC(=O)[C@@H]1[C@H]2CCC[C@H]2CN1C(=O)[C@@H](NC(=O)[C@@H](NC(=O)c1cnccn1)C1CCCCC1)C(C)(C)C)C(=O)C(=O)NC1CC1` [Telaprevir], the “rate of VP1·2A self-processing, pulse chase, WT construct” value at EV-D68 2A protease [1] (1 µM telaprevir) was “significantly decreased”. For the same compound, the “inhibition of intra-molecular processing of VP1·2A” value against EV-D68 2A protease [1] (1-µM telaprevir, maximum concentration testable) is on record as 20%. In addition, the “fold higher IC50 for intra-molecular VP1·2A cleavage than for inter-molecular eIF4G cleavage” value at EV-D68 2A protease [1] (EV-D68 2A) was “more than 20 fold”. The IC50 is 3.96 µM against EV-D68 2A protease [1] (approximate, translation extracts, drug added at initiation of translation); 0.19 µM on EV-D68 2A protease [2] (IC50, eIF4G (inter-molecular) cleavage by EV-D68 2A); roughly 0.2 µM at EV-D68 2A protease [2] (IC50, inter-molecular cleavage of eIF4G by EV-D68 2A). For the same compound, the “N84T mutant self-processing, pulse chase in the presence of telaprevir” value on EV-D68 2A N84T mutant is reported as “not inhibited”. On EV-D68 2A protease [2], the “inhibition of inter-molecular processing of eIF4G” value is “fully inhibited”.
For the compound `CSCCC(NC(=O)C(C)NC(=O)C(NC(=O)OCc1ccccc1)C(C)C)C(=O)CF` (stereo not drawn) [zVAM.fmk] (Cbz-Val-Ala-Met-CH2F; configuration not given here), on poliovirus 2A protease [3], the “inhibition of VP1·2A cis cleavage, pulse chase” value is reported as “significant inhibition”. The IC50 was 1570 µM at poliovirus 2A protease [3] (read-out: IC50, Poliovirus VP1·2A (intra-molecular) cleavage); roughly 1600 µM on poliovirus 2A protease [3] (read-out: IC50, intra-molecular poliovirus VP1·2A cleavage); 18.9 µM at poliovirus 2A protease [4]. Further, the “concentration of optimal effects on rhinovirus VP1·2A precursor processing and eIF4G cleavage” value in the test with rhinovirus protease is given as 200 µM.
